The text below walks through data of ChEMBL document CHEMBL1131357, “New bronchodilators selected by molecular topology” (1998).

What is called Emax is the greatest response seen or fitted, relative to the assay's reference.

What all share (type): functional
For assay [1], the species on record is Cavia porcellus. The assay is described as follows: Percent relaxation of isolated guinea pig trachea.
Assay [2] is filed under the species Cavia porcellus. The assay is described as follows: Percent relaxation using isolated guinea pig trachea.
The species named for assay [3] is Cavia porcellus. The experiment in a line: Compound was evaluated for the percent of relaxation using isolated guinea pig trachea.
The species entered for assay [4] is Cavia porcellus. The assay is described as follows: Compound was evaluated for the percent of relaxation using isolated guinea pig trachea at a dose of 1 mM.
Assay [5] is filed under the species Cavia porcellus. The experiment in a line: pD2 value (pD2 = -log EC50) was calculated using indometazine in guinea pig trachea.

`Cc1nc2c(o1)CC1C=CC=CC1=CC2O` (stereo not drawn): the pD2 in the assay filed under Cavia porcellus [1] is 4.8. The Relaxation in the assay filed under Cavia porcellus [2] amounted to 37%.
`CCn1cc(C(=O)O)c(=O)c2cc(F)c(N3CCNCC3)cc21` [NORFLOXACIN]: in the assay filed under Cavia porcellus [2], the Relaxation turned out to be 0%.
Still for that read-out and setting: the value for `OC(Cn1cncn1)(Cn1cncn1)c1ccc(F)cc1F` [FLUCONAZOLE] was -51%.
Consider `Cn1c(=O)c2nc[nH]c2n(C)c1=O.O` [THEOPHYLLINE], for which the pD2 in the assay listed under Cavia porcellus [1] is listed as 4.69. Also, in the assay filed under Cavia porcellus [3], the Relaxation came to 77.1%. In the assay listed under Cavia porcellus [4], this molecule came in with a maximum response (Emax) at 1000 µM of 100%.
In the case of `CCCCC1C(=O)N(c2ccccc2)N(c2ccccc2)C1=O` [PHENYLBUTAZONE], in the assay listed under Cavia porcellus [5], the pD2 is given as 4.69. Further, the Relaxation in the assay listed under Cavia porcellus [2] is 28%.
For the molecule `O=C(O)c1cn(C2CC2)c2cc(N3CCNCC3)c(F)cc2c1=O` [CIPROFLOXACIN], the Relaxation in the assay listed under Cavia porcellus [2] is listed as 0%.
As to `N#Cc1ccc2c(c1)S(=O)(=O)c1ccccc1C2=O`, the pD2 in the assay listed under Cavia porcellus [1] was 4.53. Further, the Relaxation in the assay filed under Cavia porcellus [2] worked out at 13%.
In the case of `O=C(O)c1ccc2c(c1)S(=O)(=O)c1ccccc1C2=O`, the pD2 in the assay filed under Cavia porcellus [1] amounted to 4.65. Besides, in the assay listed under Cavia porcellus [2], the Relaxation turned out to be 85%.
`Cc1c(C(C)C)c(=O)n(-c2ccccc2)n1C` [PROPYPHENAZONE] came in with a pD2 in the assay listed under Cavia porcellus [1] of 5.69. Also, in the assay filed under Cavia porcellus [2], the Relaxation is 29%.
The like results for `COC1=CC(=O)C[C@@H](C)[C@]12Oc1c(Cl)c(OC)cc(OC)c1C2=O` [GRISEOFULVIN] were, in that order, 4.8 and 74%.
In turn, `CC(=O)CC(c1ccc([N+](=O)[O-])cc1)c1c(O)c2ccccc2oc1=O` (stereo not drawn) [ACENOCOUMAROL] had a pD2 in the assay listed under Cavia porcellus [1] of 4.55. The Relaxation in the assay listed under Cavia porcellus [2] was 69%.
Molecule `O=C1c2ccccc2S(=O)(=O)c2cc(-c3nn[nH]n3)ccc21` [DOXANTRAZOLE] had a pD2 in the assay filed under Cavia porcellus [1] of 5.5. Further, in the assay filed under Cavia porcellus [2], the Relaxation stood at 91%.
Regarding `COC(=O)C1C2CCC(O2)C1C(=O)OC` (stereo not drawn), the pD2 in the assay filed under Cavia porcellus [1] is given as 4.8. The Relaxation in the assay filed under Cavia porcellus [2] is 28%.
`Cc1occc(=O)c1O` [MALTOL] registered a pD2 in the assay filed under Cavia porcellus [1] of 5.25. Besides, in the assay filed under Cavia porcellus [2], the Relaxation stood at 16%.
The like results for `O=C(CN1CCNCC1)N1CCCC1` were, in that order, 4.6 and 59%.
Regarding `Cc1ccc(S(=O)(=O)N2CCCSCC2)cc1`, the Relaxation in the assay filed under Cavia porcellus [2] is reported as 0%.
Consider `C[n+]1cc2c3c(ccc2c2ccc4cc5c(cc4c21)OCO5)OCO3` [SANGUINARIUM], for which, in the assay filed under Cavia porcellus [2], the Relaxation was -89%.
In turn, `Oc1ccc2c(O)c3ccccc3cc2c1O` [ANTHRAROBIN] displayed a pD2 in the assay listed under Cavia porcellus [1] of 5.69. Also, the Relaxation in the assay filed under Cavia porcellus [2] is listed as 92%.
In the assay listed under Cavia porcellus [1], `CCn1cc(C(=O)O)c(=O)c2cnc(N3CCCC3)nc21` [PIROMIDIC ACID] displayed a pD2 of 5.3. For the same molecule, in the assay filed under Cavia porcellus [2], the Relaxation turned out to be 25%.
The like results for `C[C@]12CCC(=O)C=C1CCCC2=O` were, in that order, 4.5 and 22%.
For the molecule `CCCCC(CC)CN1CN(CC(CC)CCCC)CC(C)(N)C1` (stereo not drawn) [HEXETIDINE], the Relaxation in the assay listed under Cavia porcellus [2] is -94%.
Turning to `CCN(CC)c1ccc2nc3c4ccccc4c(=O)cc-3oc2c1` [NILE RED], the Relaxation in the assay filed under Cavia porcellus [2] came out at 0%.
`O=S1(=O)OC(c2cc(Br)c(O)c(Br)c2)(c2cc(Br)c(O)c(Br)c2)c2ccccc21` [BROMOPHENOL BLUE] returned a pD2 in the assay listed under Cavia porcellus [1] of 4.5. Besides, the Relaxation in the assay listed under Cavia porcellus [2] is on record as 51%.
As to `NC(=O)c1ccc2c(c1)S(=O)(=O)c1ccccc1C2=O`, the pD2 in the assay listed under Cavia porcellus [1] amounted to 5.69. The Relaxation in the assay filed under Cavia porcellus [2] is on record as 18%.
As for `CN1C(C(=O)Nc2ccccn2)=C(O)c2sccc2S1(=O)=O` [TENOXICAM], in the assay listed under Cavia porcellus [5], the pD2 is 5.2. Further, the Relaxation in the assay filed under Cavia porcellus [2] amounted to 32%.
`Cc1c(C2(c3cc(Br)c(O)c(Br)c3C)OS(=O)(=O)c3ccccc32)cc(Br)c(O)c1Br` [BROMCRESOL GREEN] showed a pD2 in the assay filed under Cavia porcellus [1] of 4.5. In the assay filed under Cavia porcellus [2], the Relaxation worked out at 21%.
In the case of `Nc1nccs1` [AMINOTHIAZOLE], the pD2 in the assay listed under Cavia porcellus [1] is listed as 4.4. Further, the Relaxation in the assay filed under Cavia porcellus [2] was 19%.
